Assay results reported in US7763578B2, “Preparation of polymeric foams using hydrofluoroether nucleating agents” (3M Innovative Properties Company, priority 2004, dated 2010).

Assay: Acute toxicity (acute lethal concentration in air)
Format: in vivo
Conditions: 10,000 ppm is its saturated concentration in air at room temperature
From the text: In addition to providing useful performance as nucleating agents, the segregated ethers useful herein can offer additional important benefits in safety of use and in environmental compatibility (e.g., zero ozone depletion potential and low atmospheric lifetime). For example, 3M NOVEC Brand HFE-7500 has low acute toxicity (its acute lethal concentration is greater than 10,000 ppm which is its saturated concentration in air at room temperature). […] Further, polymeric foams produced in accordance with the invention have excellent thermal insulation properties.

For `CCOC(F)(C(F)(F)C(F)(F)C(F)(F)F)C(F)(C(F)(F)F)C(F)(F)F` (stereo not shown) [3M NOVEC Brand HFE-7500, C3F7CF(OC2H5)CF(CF3)2], the acute lethal concentration was “greater than 10,000 ppm”.
